The record followed here is patent publication US4091006A, “Esters of 3-hydroxyindone compounds” (priority 1975, dated 1978).

Data set [1] concerns adults and nymphal stages of the two-spotted mite. Description: Mite Foliage Spray Test. The settings on record: 4 days. More on the design: key: 1: no mortality; 3: an approximately 50% mortality; 5: 100% mortality. Format: in vivo, Tetranychus urticae (Koch). An excerpt: (§1) The test procedures were as follows:
(§2) Compositions were rated on the basis of percent kill with a rating of 1 indicating no mortality; 3 signifying an approximately 50% mortality and 5 indicating 100% mortality at the indicated dosage.

Data set [2] has as its system egg of the two-spotted mite. In words: Mite Ovicide Test. More on the design: key to Mite Ova rating: 1: no mortality; 3: an approximately 50% mortality; 5: 100% mortality. Particulars: spray on eggs, 4 days. Format: in vivo, Tetranychus urticae (Koch).
Excerpt: as §1
The plants were allowed to dry thoroughly.
as §2

Data set [3] relates to egg forms of the two-spotted mite. Description: Fumigant toxicity, Method 2 (treated plants near untreated infested plants). It counts as in vivo. Particulars: 500 ppm dip, 4 days. On the procedure: (§3) Two methods were used to evaluate fumigant properties:
Method 2: Excised bean plants infested with egg forms of the two-spotted mite were dipped in an aqueous preparation (500 ppm) of the test compound. The treated plants were transferred to 250 ml. Erlenmeyer flasks containing 100 ml. of tap water. Four flasks holding treated plants were evenly spaced around a similar flask in which were placed untreated mite-infested plants so that the leaves of the treated foliage were in close proximity (1-3 inches) to the untreated plants. Four days later mortality determinations were made.

The next data set deals with two-spotted mite. Description: Small scale field tests, mite control on Tendergreen bean plants. Format: in vivo, Tetranychus urticae (Koch). On the procedure:
Selected enol ester compositions were evaluated in small scale field tests to determine whether the excellent miticidal properties observed in greenhouse testing would be obtained under actual conditions of field use.
In Test I 500 ppm aqueous dispersions were prepared as described above. In tests II and III various dilutions of the test compounds ranging from 125 ppm to 1000 ppm were prepared and used. In each case the test dispersions were applied to a minimum of two replicate test plots measuring five feet in length and containing healthy young Tendergreen bean plants which had previously been infested with two-spotted mite (Tetranychus urticae (Koch)). Dispersions of the test compounds at each concentration level were applied to individual replicate plots using 1/2 gallon garden sprayers equipped with spray nozzles to apply approximately 250 ml. of test solution to each replicate. The effectiveness of the treatment was determined at intervals following application, by microscopic examination of five leaves selected at random from each replicate plot. The degree of effectiveness for each leaf was rated on a scale of from 1 to 5 with 1 indicating no control in reference to a standard sprayed with a mixture of solution less test compound and 5 indicating complete control. The results obtained from inspection of sample leaves were then averaged to give a numerical indication of the degree of control for each compound tested at the concentration applied.

The subject of data set [4] is Perennial rye grass, crabgrass, red root pigweed, mustard. Description: Preliminary Herbicide Seed Germination Test. Particulars: each rated 1 (no injury) to 5 (no seedlings emerged).
In data set [5] the test system is eggs of the two-spotted mite. Description: Fumigant toxicity, Method 1 (deposit in pie plate). It counts as in vivo. Particulars: deposit approx. 160 μg per square cm, 4 days. As for the experimental part: as §3
Method 1: Fifty mg. of each compound were dissolved in 5 ml. of acetone and poured into a 20 cm. (bottom diameter) Pyrex No. 210 pie plate. The acetone was allowed to evaporate leaving a deposit of approximately 160 μg. per square cm. The plate was then placed in the bottom of a 50 pound metal lard container (about 30 cm. in diameter and 34 cm. high). Two excised bean plants, held in a 250 ml. Erlenmeyer flask containing 100 ml. of tap water and infested with eggs of the two-spotted mite, were placed in the center of the pie plate. The container was held in the insectary (temperature 80±5° F., 50±5% R. H.) for four days before mortality determinations were made.

A further data set deals with Bean. In words: Phytotoxicity, bean. The settings on record: 2500 ppm, 10 days.
The subject of another data set is Corn. In words: Phytotoxicity, corn. The settings on record: 2500 ppm, 10 days.
In a further data set the test system is Tomato. Description: Phytotoxicity, tomato. The settings on record: 2500 ppm, 10 days.
The next data set deals with Cotton. Description: Phytotoxicity, cotton. The settings on record: 2500 ppm, 10 days.
The mark [6] stands for this setting: rating/maximum 40: 100 and 1000 ppm, four species, 10-12 days.
[7] abbreviates: rating/maximum 15: 100 ppm only, crabgrass omitted.
Where [8] appears, read: rating/maximum 20: 100 ppm only, four species.

Procedure for Corn: (§4) Experiments were also conducted to determine the phytotoxicity of representative enol ester compositions with respect to healthy fresh plants. […] The test plants were sprayed in accordance with the procedure described above for the Mite Foliage Spray Test so as to deliver approximately 100 milliliters of test solution to the leaves of each plant tested. The sprayed plants and controls were set aside for approximately 1 hour to allow the solutions to dry and were then placed in the greenhouse. After 10 days the plants were visually inspected to determine the extent of foliage injury. A rating of 1 indicates no perceptible injury; 5 indicates the plant was dead and ratings of 2, 3 and 4 indicate intermediate degrees of injury based upon the number and extent to which leaves were injured.
Procedure for Cotton: as §4
Procedure for Tomato: as §4

On to `CC(C)(C)C(=O)OC1=C(c2c(Cl)cccc2Cl)C(=O)c2ccccc21` [2-(2',6'-Dichlorophenyl)-3-(pivaloyloxy)indone], for which the “Mite Adult rating” value in data set [1] is 5 (100% mortality). Also, the “Mite Ova rating” value in [2] is reported as 5 (100% mortality). The “Fumigant Toxicity Method 2” value in [3] is given as 3. Also, the “Average mite control rating, 1st Reading” value in the data set with two-spotted mite (Test I, 500 ppm, 4 days, scale 1 (no control) to 5 (complete control)) was 3.5; in the data set on two-spotted mite (Test II, 250 ppm, 3 days, scale 1 to 5) it was 2.3; in the data set with two-spotted mite (Test II, 500 ppm, 3 days, scale 1 to 5) it was 3.0; with two-spotted mite (Test II, 1000 ppm, 3 days, scale 1 to 5) it was 3.3. Besides, the “Average mite control rating, 2nd Reading” value with two-spotted mite (Test I, 500 ppm, 8 days, scale 1 to 5) was found to be 4.0; in the data set on two-spotted mite (Test II, 250 ppm, 7 days, scale 1 to 5), 3.7; in the data set with two-spotted mite (Test II, 500 ppm, 7 days, scale 1 to 5) it was 3.3; with two-spotted mite (Test II, 1000 ppm, 7 days, scale 1 to 5), 4.7. Moreover, the “Herbicide (total preemergence rating)” value in data set [4] (setting [6]) is listed as 30/40.

Take `CCCCCCCCSC(=O)OC1=C(c2c(C)cc(C)cc2C)C(=O)c2ccccc21` [2-(2',4',6'-Trimethylphenyl)-3-(octylthiocarbonyloxy)indone]: the “Mite Adult rating” value in data set [1] is 5 (100% mortality). In addition, the “Mite Ova rating” value in data set [2] is recorded as 5 (100% mortality). The “Fumigant Toxicity Method 1” value in data set [5] came to 1. In data set [3], the “Fumigant Toxicity Method 2” value was 1. Moreover, in the data set on Bean, the “Phytotoxicity Rating, Bean” value is listed as 1. Besides, the “Phytotoxicity Rating, Corn” value in the data set on Corn stood at 1. Besides, in the data set with Tomato, the “Phytotoxicity Rating, Tomato” value turned out to be 1. Moreover, the “Phytotoxicity Rating, Cotton” value in the data set on Cotton is on record as 1. Also, the “Herbicide (total preemergence rating)” value in data set [4] (setting [7]) is recorded as 11/15.

Consider “2-(2'-Methylphenyl)-3-(neodecanoyloxy)indone”, for which, in data set [1], the “Mite Adult rating” value was 1. Further, the “Mite Ova rating” value in [2] came out at 1. Moreover, in the data set on Bean, the “Phytotoxicity Rating, Bean” value is 1. For the same compound, the “Phytotoxicity Rating, Corn” value in the data set with Corn stood at 1. Besides, the “Phytotoxicity Rating, Tomato” value in the data set on Tomato was 1. Moreover, the “Phytotoxicity Rating, Cotton” value in the data set on Cotton came to 1. Also, the “Herbicide (total preemergence rating)” value in data set [4] (setting [8]) is on record as 4/20.

For the compound `CC(=O)OC1=C(c2c(C)cc(C)cc2C)C(=O)c2ccccc21` [2-(2',4',6'-Trimethylphenyl)-3-(acetoxy)indone], the “Mite Adult rating” value in data set [1] is 5 (100% mortality). For the same compound, the “Mite Ova rating” value in data set [2] is recorded as 5 (100% mortality). In data set [5], the “Fumigant Toxicity Method 1” value is 5 (80-100% control). Further, the “Fumigant Toxicity Method 2” value in data set [3] is recorded as 5 (80-100% control). Besides, the “Herbicide (total preemergence rating)” value in [4] (setting [6]) is on record as 39/40.

On to `COCC(=O)OC1=C(c2c(C)cc(C)cc2C)C(=O)c2ccccc21` [2-(2',4',6'-Trimethylphenyl)-3-(methoxyacetoxy)indone], for which the “Mite Adult rating” value in [1] is 5 (100% mortality). Further, the “Mite Ova rating” value in data set [2] is 5 (100% mortality). Further, the “Fumigant Toxicity Method 1” value in data set [5] worked out at 1. The “Fumigant Toxicity Method 2” value in data set [3] was determined as 1. Besides, the “Phytotoxicity Rating, Bean” value in the data set with Bean turned out to be 1. Also, the “Phytotoxicity Rating, Corn” value with Corn stood at 1. The “Phytotoxicity Rating, Tomato” value with Tomato is 1. In addition, the “Phytotoxicity Rating, Cotton” value in the data set on Cotton is 1. For the same compound, the “Herbicide (total preemergence rating)” value in [4] (setting [7]) was 15/15.

With `Cc1cc(C)c(C2=C(OC(=O)C3CC4C=CC3C4)c3ccccc3C2=O)c(C)c1` (stereo not drawn) [2-(2',4',6'-Trimethylphenyl)-3-(endo-exonorborn-5-en-2-carbonyloxy)indone], in data set [1], the “Mite Adult rating” value is recorded as 5 (100% mortality). In addition, the “Mite Ova rating” value in [2] is recorded as 5 (100% mortality). In addition, the “Fumigant Toxicity Method 1” value in data set [5] is recorded as 1. Besides, the “Fumigant Toxicity Method 2” value in data set [3] was 1. In the data set on Bean, the “Phytotoxicity Rating, Bean” value was found to be 1. Also, in the data set on Corn, the “Phytotoxicity Rating, Corn” value turned out to be 1. Besides, in the data set on Tomato, the “Phytotoxicity Rating, Tomato” value is 1. Moreover, the “Phytotoxicity Rating, Cotton” value in the data set on Cotton was 2. Besides, the “Herbicide (total preemergence rating)” value in [4] (setting [7]) is 11/15.

`Cc1cc(C)c(C2=C(OC(=O)CC3C=CCC3)c3ccccc3C2=O)c(C)c1` (stereo not drawn) [2-(2',4',6'-Trimethylphenyl)-3-(cyclopent-2-en-1-ylacetoxy)indone]: in data set [1], the “Mite Adult rating” value was 5 (100% mortality). In [2], the “Mite Ova rating” value is reported as 5 (100% mortality). The “Fumigant Toxicity Method 1” value in [5] is 1. In data set [3], the “Fumigant Toxicity Method 2” value is recorded as 1. In addition, the “Phytotoxicity Rating, Bean” value in the data set with Bean was determined as 1. Also, the “Phytotoxicity Rating, Corn” value with Corn is 1. The “Phytotoxicity Rating, Tomato” value in the data set on Tomato was determined as 1. In the data set on Cotton, the “Phytotoxicity Rating, Cotton” value is on record as 2. For the same compound, the “Herbicide (total preemergence rating)” value in data set [4] (setting [7]) is listed as 11/15.

As to “2-(2',5'-Dimethylphenyl)-3-(neodecanoyloxy)indone”, the “Mite Adult rating” value in data set [1] worked out at 1. In [2], the “Mite Ova rating” value is given as 3 (an approximately 50% mortality). Moreover, the “Phytotoxicity Rating, Bean” value with Bean stood at 1. In addition, the “Phytotoxicity Rating, Corn” value in the data set on Corn amounted to 1. The “Phytotoxicity Rating, Tomato” value in the data set on Tomato is 1. Besides, the “Phytotoxicity Rating, Cotton” value in the data set with Cotton came out at 1. Moreover, the “Herbicide (total preemergence rating)” value in data set [4] (setting [8]) was 4/20.

For the compound “2-(2',4',6'-Trimethylphenyl)-3-(neodecanoyloxy)indone”, the “Mite Adult rating” value in data set [1] is recorded as 5 (100% mortality). The “Mite Ova rating” value in data set [2] is on record as 5 (100% mortality). The “Fumigant Toxicity Method 1” value in data set [5] is listed as 1. The “Fumigant Toxicity Method 2” value in data set [3] came out at 1. Besides, the “Phytotoxicity Rating, Bean” value in the data set with Bean is recorded as 2. Further, the “Phytotoxicity Rating, Corn” value with Corn came out at 2. Moreover, the “Phytotoxicity Rating, Tomato” value in the data set on Tomato was found to be 1. Further, in the data set on Cotton, the “Phytotoxicity Rating, Cotton” value was determined as 1. Besides, the “Herbicide (total preemergence rating)” value in data set [4] (setting [8]) was 10/20.

Take `CCC(=O)OC1=C(c2c(C)cc(C)cc2C)C(=O)c2ccccc21` [2-(2',4',6'-Trimethylphenyl)-3-(propionyloxy)indone]: the “Mite Adult rating” value in data set [1] is 5 (100% mortality). For the same compound, the “Mite Ova rating” value in data set [2] is 5 (100% mortality). In addition, in data set [5], the “Fumigant Toxicity Method 1” value is 5 (80-100% control). Further, the “Fumigant Toxicity Method 2” value in [3] is given as 5 (80-100% control). Moreover, in the data set with Bean, the “Phytotoxicity Rating, Bean” value was 1. Further, the “Phytotoxicity Rating, Corn” value in the data set on Corn is reported as 2. The “Phytotoxicity Rating, Tomato” value with Tomato is listed as 2. Also, in the data set on Cotton, the “Phytotoxicity Rating, Cotton” value is 1. Further, the “Herbicide (total preemergence rating)” value in data set [4] (setting [6]) is 32/40.

On to `CC=CCCCCCCCC(=O)OC1=C(c2c(C)cc(C)cc2C)C(=O)c2ccccc21` [2-(2',4',6'-Trimethylphenyl)-3-(undec-9-enoyloxy)indone], for which the “Mite Adult rating” value in [1] was 5 (100% mortality). In addition, in data set [2], the “Mite Ova rating” value is on record as 5 (100% mortality). The “Fumigant Toxicity Method 1” value in data set [5] is reported as 1. For the same compound, in data set [3], the “Fumigant Toxicity Method 2” value turned out to be 1. In addition, the “Phytotoxicity Rating, Bean” value with Bean was 2. In the data set with Corn, the “Phytotoxicity Rating, Corn” value was found to be 2. Besides, in the data set on Tomato, the “Phytotoxicity Rating, Tomato” value is reported as 2. In the data set with Cotton, the “Phytotoxicity Rating, Cotton” value is recorded as 1. Further, in data set [4] (setting [8]), the “Herbicide (total preemergence rating)” value is recorded as 19/20.

Take `Cc1cc(C)c(C2=C(OC(=O)OC(C)C)c3ccccc3C2=O)c(C)c1` [2-(2',4',6'-Trimethylphenyl)-3-(Isopropoxycarbonyloxy)indone]: the “Mite Adult rating” value in [1] was 5 (100% mortality). For the same compound, the “Mite Ova rating” value in data set [2] was 5 (100% mortality). For the same compound, in data set [5], the “Fumigant Toxicity Method 1” value is 5 (80-100% control). In [3], the “Fumigant Toxicity Method 2” value was determined as 3. Besides, the “Herbicide (total preemergence rating)” value in [4] (setting [8]) is listed as 18/20.
